Data set [1] concerns BMDM. Put plainly: Anti-osteoclastogenic activity in M-CSF/RANKL-induced C57BL/6 mouse BMDM cells assessed as inhibition of M-CSF/RANKL-stimulated osteoclast differentiation at 10 uM measured after 5 days by TRAP staining based microscopic analysis relative to control. Type of data set: functional. Set-up: scale not given: the % may be the effect or the level left. Particulars: time 5 day.

Data set [2] concerns C3H 10T1/2. Put plainly: Anabolic activity in mouse C3H 10T1/2 cells by measuring fold change in osteoblast differentiation at 10 uM incubated for 7 days by ALP staining based analysis. Type of data set: functional. Particulars: time 7 day.
Data set [3] concerns BMDM. As to the kind of experiment: Anti-osteoclastogenic activity in M-CSF/RANKL-induced C57BL/6 mouse BMDM cells assessed as inhibition of M-CSF/RANKL-stimulated osteoclast differentiation measured after 5 days by TRAP staining based microscopic analysis. As to conditions: C57BL/6, BMDM, 120 h. The data set is classed as functional, cell-based.
Data set [4] is described as follows: Cytotoxicity against mouse RAW264.7 cells incubated for 48 hrs by CCK-8 assay. The data set is classed as toxicity, cell-based.
In data set [5] the test system is C3H 10T1/2. Put plainly: Induction of osteoblast mineralization in mouse C3H 10T1/2 cells assessed as increase in calcium deposition at 10 uM measured after 14 days by Alizarin Red S staining based analysis. Type of data set: functional, cell-based. Particulars: time 14.0 day.
The test system of data set [6] is C3H 10T1/2. As to the kind of experiment: Induction of osteoblast differentiation in mouse C3H 10T1/2 cells at 10 uM incubated for 7 days by ALP staining based analysis. Type of data set: functional, cell-based. Particulars: time 7.0 day.
Data set [7] relates to C3H 10T1/2. As to the kind of experiment: Induction of osteoblastogenesis in mouse C3H 10T1/2 cells assessed as upregulation of ALP gene expression at 1 uM incubated for 7 days by RT-qPCR analysis. Type of data set: functional, cell-based. Particulars: time 7.0 day. (In qPCR the cycle at which signal appears reflects the starting amount.)
The subject of data set [8] is C3H 10T1/2. Put plainly: Induction of osteoblastogenesis in mouse C3H 10T1/2 cells assessed as upregulation of SP7 gene expression at 1 uM incubated for 7 days by RT-qPCR analysis. The data set is classed as functional, cell-based. Particulars: time 7.0 day.
Data set [9] relates to C3H 10T1/2. Put plainly: Induction of osteoblastogenesis in mouse C3H 10T1/2 cells assessed as upregulation of SPARC gene expression at 1 uM incubated for 7 days by RT-qPCR analysis. The data set is classed as functional, cell-based. As to conditions: time 7.0 day.
Data set [10] deals with C3H 10T1/2. As to the kind of experiment: Induction of osteoclastogenesis in mouse C3H 10T1/2 cells assessed as upregulation of RANKL gene expression at 1 uM incubated for 7 days by RT-qPCR analysis. Type of data set: functional, cell-based. Particulars: time 7.0 day.
Data set [11] has as its system BMDM. Put plainly: Anti-osteoclastogenic activity in M-CSF/RANKL-induced C57BL/6 mouse BMDM cells assessed as downregulation of ATP6VOD2 mRNA expression at 1 uM incubated for 7 days by RT-qPCR analysis. Type of data set: functional, cell-based. Particulars: time 7.0 day.
Data set [12] has as its system BMDM. Put plainly: Anti-osteoclastogenic activity in M-CSF/RANKL-induced C57BL/6 mouse BMDM cells assessed as downregulation of C-Fos mRNA expression at 1 uM incubated for 7 days by RT-qPCR analysis. The data set is classed as functional, cell-based. Particulars: time 7.0 day.
The subject of data set [13] is BMDM. As to the kind of experiment: Anti-osteoclastogenic activity in M-CSF/RANKL-induced C57BL/6 mouse BMDM cells assessed as downregulation of CTSK mRNA expression at 1 uM incubated for 7 days by RT-qPCR analysis. The data set is classed as functional, cell-based. As to conditions: time 7.0 day.
Data set [14] relates to BMDM. Put plainly: Anti-osteoclastogenic activity in M-CSF/RANKL-induced C57BL/6 mouse BMDM cells assessed as downregulation of TRACP mRNA expression at 1 uM incubated for 7 days by RT-qPCR analysis. The data set is classed as functional, cell-based. As to conditions: time 7.0 day.
Data set [15] concerns C3H 10T1/2. As to the kind of experiment: Induction of osteoblast mineralization in mouse C3H 10T1/2 cells assessed as increase in calcium deposition at 1 uM measured after 14 days by Alizarin Red S staining based analysis. Type of data set: functional, cell-based. As to conditions: time 14.0 day.

The values that follow come from ChEMBL document CHEMBL5584340, “Discovery of Novel Antiosteoporosis Leads with Bone Resorption Inhibition and Anabolic Promotion through a Chemotype-Assembly Approach” (J Med Chem, 2024).

The term IC50 denotes the midpoint of a concentration-inhibition curve. Usually CC50 stands for the concentration giving 50% cytotoxicity.

Molecules are shown by their SMILES. Active and inactive are the calls of the source. No cut-off for these calls is given here. Where only a bound is given, the exact number is not on record here.

In the case of `Cc1ccc(-c2nc3ccccc3c(C(=O)O)c2C)cc1`, the Activity in the data set with BMDM [1] is recorded as less than 10%. Consider `Cn1ncc2c(Nc3ccc(C(=O)O)cc3)ncnc21`, for which, in the data set on BMDM [1], the Activity was found to be 50%. In the data set on C3H 10T1/2 [2], the “fold change (FC)” value is 3.2. For `COC(=O)c1ccccc1C(=O)Nc1nccs1`, the half-inhibitory concentration (IC50) with BMDM [3] stood at 28.1 µM. In data set [4], this molecule displayed a 50% cytotoxic concentration (CC50) at 48 h of 498 µM. As for `NC(Cc1cc(I)c(Oc2cc(I)c(O)c(I)c2)c(I)c1)C(=O)O` (configuration not stated) [THYROXINE], the Activity with BMDM [1] is less than 10%. For the molecule `Cc1cc(C)c(S(=O)(=O)Nc2ccc(C(=O)O)cc2)cc1C`, the Activity in the data set with BMDM [1] is less than 10%. As for `O=C(O)c1cccc(Nc2nc3ccccc3[nH]2)c1`, in the data set with BMDM [1], the Activity was 33%. For `CN1C(=O)[C@@H](/N=N/c2ccccc2C(=O)O)N(C)C1=S`, in the data set on BMDM [1], the Activity is recorded as 50%. The “fold change (FC)” value in the data set with C3H 10T1/2 [2] was 3.9. On to `COc1ccc(-c2nc(NC(=O)C3CCCCC3C(=O)O)sc2C)cc1` (configuration not stated), for which the Activity with BMDM [1] was less than 10%. `O=C(O)c1cc(Cl)ccc1C(=O)Nc1nc2ccccc2s1`: the half-maximal inhibitory concentration (IC50) with BMDM [3] is 3.5 µM. The molecule further showed a CC50 at 48 h in [4] of 1330 µM. `NC(Cc1cc(I)c(Oc2ccc(O)c(I)c2)c(I)c1)C(=O)O` (configuration not stated) [RATHYRONINE]: the Activity in the data set with BMDM [1] is recorded as less than 10%. For `Cc1csc(NC(=O)c2ccccc2C(=O)O)n1`, the half-maximal inhibitory concentration (IC50) in the data set with BMDM [3] was found to be 12.4 µM. In addition, half-maximal cytotoxicity in [4] (CC50 at 48 h) was put at 212 µM. On to `COc1ccc(-c2occ(C(=O)O)c2C(=O)O)cc1`, for which, in the data set on BMDM [1], the Activity is recorded as less than 10%.

Consider `COc1cccc(-c2cc(C(=O)O)c3ccccc3n2)c1`, for which, in the data set on BMDM [1], the Activity was less than 10%. Same read-out and setting: the figure for `COc1ccc(-c2cc(C(=O)O)c3ccccc3n2)cc1OC` is 40%. The same measure, in the same setting: the figure for `COc1ccccc1-c1cc(C(=O)O)c2ccccc2n1` is less than 10%. In the case of `O=C1NC(=O)C(=NNc2cccc(C(=O)O)c2)C(=O)N1`, the Activity in the data set with BMDM [1] was less than 10%. In the case of `O=C(O)c1ccccc1C(=O)Nc1nccs1`, the Activity with BMDM [1] is on record as 75%. Besides, the “fold change (FC)” value with C3H 10T1/2 [2] is recorded as 11.4. The IC50 in the data set with BMDM [3] amounted to 8.5 µM. Besides, the CC50 at 48 h in data set [4] came to 178 µM. Moreover, the result in the data set with C3H 10T1/2 [5], in the data set with C3H 10T1/2 [6], in the data set on C3H 10T1/2 [7], in the data set on C3H 10T1/2 [8] and in the data set with C3H 10T1/2 [9] was Active. The outcome with C3H 10T1/2 [10] was inactive. Regarding `NCCCC(O)(P(=O)([O-])O)P(=O)(O)O.[Na+]` [ALENDRONATE SODIUM], the Activity in the data set on BMDM [1] was found to be 81%. In the data set with BMDM [3], the concentration for half-maximal inhibition (IC50) is 0.39 µM.

Regarding `CCOC(=O)c1sc(NC(=O)c2ccccc2C(=O)O)nc1C`, in the data set on BMDM [3], the IC50 was more than 33 µM. Turning to `O=C(O)c1cc(Cl)ccc1C(=O)Nc1nccs1`, the IC50 in the data set with BMDM [3] was determined as 2.02 µM. The same molecule showed a CC50 at 48 h in data set [4] of 144 µM. The corresponding values for `CCOC(=O)c1sc(NC(=O)c2cc3ccccc3cc2C(=O)O)nc1C` are 2.35 µM and 506 µM. As for `O=C(O)c1ccc(-c2cnc3ccccc3n2)cc1`, the Activity with BMDM [1] was less than 10%. Still for that read-out and setting: in the case of `Nc1ccc(-c2cc(C(=O)O)c3ccccc3n2)cc1` it was less than 10%. Turning to `Nc1cccc(-c2cc(C(=O)O)c3ccccc3n2)c1`, in the data set with BMDM [1], the Activity is given as 50%. In addition, in the data set on C3H 10T1/2 [2], the “fold change (FC)” value is less than 2.

Turning to `COc1cccc(C(=O)O)c1C(=O)Nc1nccs1`, in the data set on BMDM [3], the IC50 turned out to be 3.94 µM. Moreover, the cytotoxic concentration (CC50) at 48 h in data set [4] worked out at 36.3 µM. Turning to `Cc1ccc(-c2cc(C(=O)O)c3cccc(C)c3n2)cc1`, the Activity in the data set with BMDM [1] is given as less than 10%. Regarding `O=C(O)C1OC(Oc2cc3oc(-c4ccc(O)cc4)cc(=O)c3c(O)c2O)C(O)C(O)C1O` (configuration not stated), in the data set on BMDM [1], the Activity amounted to 80%. In the data set on C3H 10T1/2 [2], the “fold change (FC)” value is listed as less than 2. Take `O=C(O)c1cccc(NS(=O)(=O)c2ccc(I)cc2)c1`: the Activity with BMDM [1] was less than 10%.

With `Cc1cccc(C)c1NC(=O)c1ccccc1C(=O)O` [FTAXILIDE], the Activity in the data set with BMDM [1] stood at 80%. The “fold change (FC)” value in the data set on C3H 10T1/2 [2] is 6. Regarding `Cc1cc(C(=O)O)ccc1-c1ccc(CO)o1`, the Activity in the data set with BMDM [1] was less than 10%. Take `O=C(O)c1ccccc1C(=O)Nc1nc2ccccc2s1`: the IC50 in the data set on BMDM [3] came to 2.35 µM. This molecule also showed a CC50 at 48 h in [4] of 380 µM. Regarding `O=C(O)c1ccccc1SCc1cc(O)nc(O)n1`, the Activity in the data set with BMDM [1] amounted to 90%. The “fold change (FC)” value in the data set with C3H 10T1/2 [2] was determined as 8.2. The matching figures for `CC(C)(C)c1ccc(-c2cc(C(=O)O)c3ccccc3n2)cc1`: 80% and less than 2.

For `CCc1ccc(-c2cc(C(=O)O)c3ccccc3n2)cc1`, in the data set on BMDM [1], the Activity was 30%. On the same count and under the same terms, the figure for `O=C(O)c1ccccc1C(=O)Nc1nc2c(s1)CCCC2` is less than 10%; for `CN(CCCC(=O)O)c1nc(-c2ccc(Br)cc2)cs1` it is less than 10%; for `Cc1cccc(C(=O)Nc2scc(-c3cccs3)c2C(=O)O)c1` it is less than 10%. The same measure, in the same setting: in the case of `Cc1ccc(-c2cc(C(=O)O)c3ccccc3n2)c(C)c1` it was less than 10%. As to `O=C(O)c1ccccc1C(=O)Nc1ccccn1`, the IC50 in the data set with BMDM [3] is 14.4 µM. For the same molecule, the CC50 at 48 h in data set [4] is 3820 µM.

For the molecule `Cc1cccc(NC(=O)c2ccccc2C(=O)O)c1C`, the Activity in the data set with BMDM [1] is listed as less than 10%.

On to `O=C(O)c1ccc(N2C(=O)CSC2=S)cc1`, for which the Activity in the data set on BMDM [1] was determined as 79%. In addition, the “fold change (FC)” value with C3H 10T1/2 [2] came out at 7.5. In the case of `Cc1ccc(C(=O)Nc2nccs2)c(C(=O)O)c1`, the IC50 with BMDM [3] came out at 12.8 µM. For the same molecule, the half-maximal cytotoxic concentration (CC50) at 48 h in data set [4] came out at 46.9 µM. Turning to `Cc1ccc2nc(-c3ccc(Cl)cc3)cc(C(=O)O)c2c1`, the Activity in the data set with BMDM [1] is reported as 80%. Moreover, the “fold change (FC)” value in the data set on C3H 10T1/2 [2] was 2.4. Take `Cc1ccc(C)c(-c2cc(C(=O)O)c3ccccc3n2)c1`: the Activity in the data set with BMDM [1] is less than 10%.

Regarding `O=C(O)c1ccc2[nH]c(-c3cccc(-c4nc5cc(C(=O)O)ccc5[nH]4)c3)nc2c1`, the Activity in the data set with BMDM [1] was determined as 20%. Take `O=C(Nc1nccs1)c1cccc(O)c1C(=O)O`: the half-inhibitory concentration (IC50) in the data set with BMDM [3] was more than 33 µM. As to `O=C(Nc1nccs1)c1cccc(F)c1C(=O)O`, the half-maximal inhibitory concentration (IC50) in the data set on BMDM [3] was determined as 3.16 µM. In data set [4], the CC50 at 48 h is 930 µM. Take `O=C(O)c1cc2ccccc2cc1C(=O)Nc1nccs1`: in the data set on BMDM [3], the IC50 is 1.05 µM. The same molecule gave a half-maximal cytotoxic concentration (CC50) at 48 h in data set [4] of 490 µM. The outcome in the data set with BMDM [11], in the data set with BMDM [12], in the data set with BMDM [13], in the data set on BMDM [14], in the data set with C3H 10T1/2 [15] and with C3H 10T1/2 [7] was Active. The result with C3H 10T1/2 [8] and with C3H 10T1/2 [9] was Active. Also, the result in the data set on C3H 10T1/2 [10] was inactive.
